The subject of assay [1] is cholesterol biosynthesis in L-cells of mice (929). The assay is described as follows: Assay Method B: inhibition of 14C-cholesterol biosynthesis from 14C-acetic acid in L-cells of mice (929) (method of Kandutsch et al). The settings on record: Mus musculus, mole concentration for 50% inhibition of cholesterol biosynthesis, read-out: ID50 (M) Assay Method B. The assay is classed as cell-based. The source says:
The inhibitory activity of these compounds to cholesterol biosynthesis was further evaluated according to the method described in A. A. Kandutsch et al, Journal of Biological Chemistry, 248, 8408 (1973) by measuring the amount of ^14 C-cholesterol biosynthesized from ^14 C-acetic acid using L-cells of mice (929), and the activity was expressed by the mole concentration [I50 (M)] for 50% inhibition of cholesterol biosynthesis (Assay Method B).

Assay [2] has as its target T1, 3-hydroxy-3-methylglutaryl coenzyme A reductase (Rattus norvegicus, UniProt P51639).
T1 construct: from tissue
T1 sequence (P51639 1-887): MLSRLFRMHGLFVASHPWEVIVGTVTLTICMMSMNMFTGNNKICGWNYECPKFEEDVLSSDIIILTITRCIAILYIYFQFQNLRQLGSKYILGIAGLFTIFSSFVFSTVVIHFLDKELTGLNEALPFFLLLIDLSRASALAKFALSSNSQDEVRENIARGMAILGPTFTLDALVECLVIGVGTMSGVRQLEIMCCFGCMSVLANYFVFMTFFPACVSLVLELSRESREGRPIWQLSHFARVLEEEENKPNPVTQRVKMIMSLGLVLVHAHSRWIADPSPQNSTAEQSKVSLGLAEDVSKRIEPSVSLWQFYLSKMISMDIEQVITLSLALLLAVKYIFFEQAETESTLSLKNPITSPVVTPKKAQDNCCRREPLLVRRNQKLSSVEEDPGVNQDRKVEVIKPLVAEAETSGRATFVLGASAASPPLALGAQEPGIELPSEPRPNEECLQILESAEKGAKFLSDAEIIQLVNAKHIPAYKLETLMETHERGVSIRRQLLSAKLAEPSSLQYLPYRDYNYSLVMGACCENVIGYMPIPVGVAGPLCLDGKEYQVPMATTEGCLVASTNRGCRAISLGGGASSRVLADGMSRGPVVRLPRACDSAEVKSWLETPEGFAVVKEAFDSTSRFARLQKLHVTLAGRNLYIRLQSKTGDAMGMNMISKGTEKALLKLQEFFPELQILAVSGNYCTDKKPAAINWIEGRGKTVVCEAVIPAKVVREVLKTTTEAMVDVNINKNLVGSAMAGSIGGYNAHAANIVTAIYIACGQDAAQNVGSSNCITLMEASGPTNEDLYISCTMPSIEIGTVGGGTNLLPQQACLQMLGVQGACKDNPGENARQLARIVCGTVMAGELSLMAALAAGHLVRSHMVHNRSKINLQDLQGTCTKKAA
As to the kind of experiment: Assay Method A: inhibitory activity to cholesterol biosynthesis in vitro, 50% inhibition of the enzyme activity (method of Knauss et al). It counts as biochemical.

Setting [3] is: Assay Method A, in vitro, mole concentration for 50% inhibition of the enzyme activity, read-out: ID50 (M) Assay Method A.

SMILES strings stand for the structures. Read-outs that look alike come from different tables or passages of the source.

As to `CC1(O)CC(=O)OC(CCc2ccc(Cl)cc2)C1` (stereo not drawn) [N, 3-Hydroxy-3-methyl-7-(p-chlorophenyl)-5-heptanolide], the IC50 is 3e-05 M in assay [1] and 4.5e-05 M in assay [2] (setting [3]). With `CC1(O)CC(=O)OC(CCc2ccc(O)cc2)C1` (stereo not drawn) [F, 3-Hydroxy-3-methyl-7-(p-hydroxyphenyl)-5-heptanolide], the IC50 in assay [2] (setting [3]) was 6.6e-05 M. For the compound `COc1cc(CCC2CC(C)(O)CC(=O)O2)ccc1OC(C)=O` (stereo not drawn) [W, 3-Hydroxy-3-methyl-7-(p-acetoxy-m-methoxyphenyl)-5-heptanolide], the IC50 in assay [1] was 8.3e-05 M; in assay [2] (setting [3]) it was 4.5e-05 M. Taken in the same sequence, the figures for `CC1(O)CC(=O)OC(c2ccc(OCc3ccccc3)cc2)C1` (stereo not drawn) [A, 3-Hydroxy-3-methyl-5-(p-benzyloxyphenyl)-5-pentanolide] were 0.00013 M and 6.2e-05 M. Take `CC1C(C=Cc2ccccc2)OC(=O)CC1(C)O` (stereo not drawn) [Q, 3-Hydroxy-3,4-dimethyl-7-phenyl-6-hepten-5-olide]: in assay [2] (setting [3]), the IC50 stood at 6.4e-05 M.

Regarding `CC1(O)CC(=O)OC(CCc2ccccc2)C1` (stereo not drawn) [C, 3-Hydroxy-3-methyl-7-phenyl-5-heptanolide], the results for the IC50 in assay [1] and in assay [2] (setting [3]) were 4.2e-05 M and 0.00036 M, respectively. Take `COc1cc(CCC2CC(C)(O)CC(=O)O2)ccc1OCc1ccccc1` (stereo not drawn) [T, 3-Hydroxy-3-methyl-7-(p-benzyloxy-m-methoxyphenyl)-5-heptanolide]: the IC50 in assay [1] was 1.1e-05 M; in assay [2] (setting [3]), 2.1e-05 M.

Regarding `Cc1cc(OC(=O)c2ccccc2)cc(C)c1CCC1CC(C)(O)CC(=O)O1` (stereo not drawn) [X, 3-Hydroxy-3-methyl-7-(p-benzoyloxy-o,o'-dimethylphenyl)-5-heptanolide], the results for the IC50 in assay [1] and in assay [2] (setting [3]) were 6.5e-06 M and 3.9e-06 M, respectively.

For the compound `CC1(O)CC(=O)OC(CCc2ccccc2)C1Br` (stereo not drawn) [Compound D, 3-Hydroxy-3-methyl-4-bromo-7-phenyl-5-heptanolide], the IC50 in assay [2] (setting [3]) stood at 0.0001 M. In the case of `CC1(O)CC(=O)OC(CCCc2ccc(OCc3ccccc3)cc2)C1` (stereo not drawn) [Y, 3-Hydroxy-3-methyl-8-(p-benzyloxyphenyl)-5-octanolide], the results for the IC50 in assay [1] and in assay [2] (setting [3]) were 7e-06 M and 4e-06 M, respectively. For `CC1(O)CC(=O)OC(CCc2ccccc2OCc2ccccc2)C1` (stereo not drawn) [I, 3-Hydroxy-3-methyl-7-(o-benzyloxyphenyl)-5-heptanolide], the IC50 in assay [1] was determined as 5e-05 M; in assay [2] (setting [3]) it was 3.3e-05 M.

For `CC1(O)CC(=O)OC(C=Cc2cccc(OCc3ccccc3)c2)C1` (stereo not drawn) [S, 3-Hydroxy-3-methyl-7-(m-benzyloxyphenyl)-6-hepten-5-olide], the IC50 in assay [1] came to 0.00012 M; in assay [2] (setting [3]) it was 7.1e-05 M. On to `CC1(O)CC(=O)OC(CCc2ccc(OCc3ccccc3)cc2)C1` (stereo not drawn) [H, 3-Hydroxy-3-methyl-7-(p-benzyloxyphenyl)-5-heptanolide], for which the IC50 in assay [1] was found to be 6e-06 M; in assay [2] (setting [3]), 4.2e-06 M. As to `CC1(O)CC(=O)OC(CCc2ccc(OCc3ccc(F)cc3)cc2)C1` (stereo not drawn) [L, 3-Hydroxy-3-methyl-7-[p-(p-fluorobenzyloxy)phenyl]-5-heptanolide], the IC50 in assay [1] worked out at 5e-05 M. As for `CC1C(CCc2ccccc2)OC(=O)CC1(C)O` (stereo not drawn) [E, 3-Hydroxy-3,4-dimethyl-7-phenyl-5-heptanolide], the IC50 in assay [2] (setting [3]) was 6.7e-05 M. As to `CC1(O)CC(=O)OC(C=Cc2ccc(OCc3ccccc3)cc2)C1` (stereo not drawn) [R, 3-Hydroxy-3-methyl-7-(p-benzyloxyphenyl)-6-hepten-5-olide], the values for the IC50 in assay [1] and in assay [2] (setting [3]) were 1.3e-05 M and 8.6e-06 M, respectively. Taken in the same sequence, the figures for `CC(=O)OC1(C)CC(=O)OC(CCc2ccc(OCc3ccccc3)cc2)C1` (stereo not drawn) [G, 3-Acetoxy-3-methyl-7-(p-benzyloxyphenyl)-5-heptanolide] were 3.1e-05 M and 4.5e-05 M. Take `Cc1cc(OCc2ccccc2)cc(C)c1CCC1OC(=O)CC(C)(O)C1Br` (stereo not drawn) [V, 3-Hydroxy-3-methyl-4-bromo-7-(p-benzyloxy-o,o'-dimethylphenyl)-5-heptanolide]: the IC50 in assay [1] is 1e-05 M.

As to `CC1(O)CC(=O)OC(CCCc2ccc(OCc3ccccc3)cc2)C1Br` (stereo not drawn) [Z, 3-Hydroxy-3-methyl-4-bromo-8-(p-benzyloxyphenyl)-5-octanolide], the IC50 came to 1.2e-05 M in assay [1] and 6.7e-06 M in assay [2] (setting [3]).

On to `CCOC(=O)C(C)(C)Oc1ccc(Cl)cc1` [Clofibrate, reference compound], for which the IC50 in assay [1] was found to be 8e-05 M; in assay [2], 0.001 M.

With `CC1(O)CC(=O)OC(c2ccc(-c3ccccc3)cc2)C1` (stereo not drawn) [B, 3-Hydroxy-3-methyl-5-(4-biphenylyl)-5-pentanolide], the IC50 in assay [1] was 0.00016 M; in assay [2] (setting [3]) it was 0.0001 M. Turning to `CC1(O)CC(=O)OC(CCc2ccc(OCc3ccc(Cl)cc3)cc2)C1` (stereo not drawn) [M, 3-Hydroxy-3-methyl-7-[p-(p-chlorobenzyloxy)phenyl]-5-heptanolide], the IC50 in assay [1] was 1.9e-05 M.

Turning to `CC1(O)CC(=O)OC(CCc2ccc(Cl)cc2)C1Br` (stereo not drawn) [O, 3-Hydroxy-3-methyl-4-bromo-7-(p-chlorophenyl)-5-heptanolide], the IC50 in assay [2] (setting [3]) turned out to be 6.3e-05 M. Turning to `COc1ccc(CCC2CC(C)(O)CC(=O)O2)cc1` (stereo not drawn) [P, 3-Hydroxy-3-methyl-7-(p-methoxyphenyl)-5-heptanolide], the IC50 in assay [2] (setting [3]) turned out to be 6.3e-05 M. Regarding `Cc1cc(OCc2ccccc2)cc(C)c1CCC1CC(C)(O)CC(=O)O1` (stereo not drawn) [U, 3-Hydroxy-3-methyl-7-(p-benzyloxy-o,o'-dimethylphenyl)-5-heptanolide], the IC50 was 5.4e-06 M in assay [1] and 3.8e-06 M in assay [2] (setting [3]).

In the case of `CC1(O)CC(=O)OC(CCc2ccccc2OCc2ccccc2)C1Br` (stereo not drawn) [K, 3-Hydroxy-3-methyl-4-bromo-7-(o-benzyloxyphenyl)-5-heptanolide], the IC50 worked out at 8.8e-05 M in assay [1] and 4.7e-05 M in assay [2] (setting [3]). For the compound `CC1(O)CC(=O)OC(CCc2ccc(OCc3ccccc3)cc2)C1Br` (stereo not drawn) [J, 3-Hydroxy-3-methyl-4-bromo-7-(p-benzyloxyphenyl)-5-heptanolide], the results for the IC50 in assay [1] and in assay [2] (setting [3]) were 3e-05 M and 5.6e-06 M, respectively.
